Measurements reported in patent publication US12006296B1, “5-(4-methoxyphenyl)-1-hexyl-2-(4-nitrophenyl)-4-phenyl-1H-imidazoleas an antimicrobial compound” (KING FAISAL UNIVERSITY, priority 2023, dated 2024).

What was measured:
Assay type in all cases: cell-based
Candida albicans = experiment: Antimicrobial testing by agar dilution, Candida albicans; conditions: after 10, 20, 40 and 60 min at all dilutions 1:100, 1:200, 1:400, 1:800, summary in words
Protocol: (§1) The antimicrobial properties of the 5-(4-methoxyphenyl)-1-hexyl-2-(4-nitrophenyl)-4-phenyl-1H-imidazole was studied by the method of agar dilution. Test solutions of each compound was prepared in concentration of 1% using dimethylformamide as a solvent then they are diluted in physiological solution to obtain the final experimental dilutions 1:100, 1:200, 1:400, 1:800. The effect of these substances are compared with furacillin in a controllable study. The testing microbes used were gram positive bacteria St. Aereus, gram negative bacteria E. Coli, Ps. aeruginosa and Candida albicans fungi were taken. The experiments used for this survey were meat-pentonlu agar (EPA) for cultivation of bacteria and Saburo environment for fungi. Each experiment used 1 ml of test solution on each plate 500 min. Add 2 drops of emulsified with microbes feel. All experimental samples were taken from the agar after 10, 20, 40, 60 minutes in the environment on the basis of Patrk planted. Bacteria were cultivated at a temperature of 37° C. for 1 day and the mushroom was kept in a thermostat for […] at a temperature of 28° C. in the. Then results were checked.

St. Aereus = experiment: Antimicrobial testing by agar dilution, St. Aereus; conditions: Staphylococcus aureus; after 10, 20, 40 and 60 min at all dilutions 1:100, 1:200, 1:400, 1:800; summary in words
Protocol: as §1

E. Coli = experiment: Antimicrobial testing by agar dilution, E. Coli; conditions: Escherichia coli; after 10, 20, 40 and 60 min at all dilutions 1:100, 1:200, 1:400, 1:800; summary in words
Protocol: as §1

Ps. aeruginosa = experiment: Antimicrobial testing by agar dilution, Ps. aeruginosa; conditions: Pseudomonas aeruginosa; after 10, 20, 40 and 60 min at all dilutions 1:100, 1:200, 1:400, 1:800; summary in words
Protocol: as §1

Measured: inhibition activity

CCCCCCn1c(-c2ccc([N+](=O)[O-])cc2)nc(-c2ccccc2)c1-c1ccc(OC)cc1 [5-(4-methoxyphenyl)-1-hexyl-2-(4-nitrophenyl)-4-phenyl-1H-imidazole]
most higher inhibition activity: all assays above
